Eight compounds from ChEMBL document CHEMBL1201862, “PubChem BioAssay data set” (2004) can be followed below.

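Following 48 hours of exposure in 96-well plates, responses at five concentrations were used to interpolate endpoints linearly. GI50: concentration for 50% inhibition of growth.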 Activity calls are given as the source filed them. No stated cut-off is given here; in the data, active = GI50 up to about 1.1 µM and inactive = higher.

Some test systems named below: 786-0; A549; CAKI-1; DU-145; EKVX; HCC 2998; HCT-116; HL-60; M14; MDA-MB-435; MOLT-4; NCI-H226; OVCAR-8; RPMI-8226; SK-MEL-28; SK-MEL-2; SK-MEL-5; UACC-62; SR.
Common to all, as to assay: growth of human tumour cells (NCI), 48 h

In the case of `FC1=C2C3CCC(C3)C2C1(F)F` (stereo not drawn), the GI50 in the test with 786-0, in the test with A549, in the test with CAKI-1, with DU-145, with EKVX and with HCC 2998 was > 100 µM (inactive) in each case. The GI50 with HCT-116 is > 100 µM (inactive); in the test on HL-60, 81.7 µM (inactive); with M14, > 100 µM (inactive); in the test with MDA-MB-435, > 100 µM (inactive); in the test with MOLT-4, > 100 µM (inactive); in the test on NCI-H226 it was > 100 µM (inactive). The GI50 in the test on OVCAR-8, in the test with RPMI-8226, in the test with SK-MEL-28, with SK-MEL-2, with SK-MEL-5 and with UACC-62 was > 100 µM (inactive) throughout.
Turning to `Cc1cc(SCC(=O)c2ccccc2)nc2ccccc12`, the GI50 in the test with 786-0 was > 100 µM (inactive); with A549, 67.1 µM (inactive); with CAKI-1, > 100 µM (inactive); with DU-145, > 100 µM (inactive); with EKVX, 8.11 µM (inactive); with HCT-116 it was > 100 µM (inactive). Besides, the GI50 in the test on HL-60 is > 100 µM (inactive); in the test on M14, 92.3 µM (inactive); in the test on MDA-MB-435, > 100 µM (inactive); with MOLT-4, > 100 µM (inactive); in the test on NCI-H226, > 100 µM (inactive); with OVCAR-8 it was > 100 µM (inactive). Moreover, the GI50 in the test on RPMI-8226, in the test with SK-MEL-28, in the test with SK-MEL-2, in the test with SK-MEL-5, with SR and in the test with UACC-62 was > 100 µM (inactive) throughout.
`COc1ccc(-c2sc(Br)c3c2C(=O)C2OC(=O)NC32)cc1OC` (stereo not drawn): the GI50 with 786-0, with A549, in the test on CAKI-1, in the test with DU-145, in the test with EKVX and in the test on HCT-116 was > 100 µM (inactive) throughout. Besides, the GI50 with HL-60, with M14, with MDA-MB-435, in the test with MOLT-4, with NCI-H226 and in the test with OVCAR-8 was > 100 µM (inactive) throughout. Further, the GI50 in the test on RPMI-8226, in the test with SK-MEL-2, with SK-MEL-5, with SR and in the test on UACC-62 was > 100 µM (inactive) in each case.
As to `CC(C)=C/C=C1/CS(=O)(=O)C=C1C`, the GI50 in the test on 786-0, in the test on A549, in the test on CAKI-1, with DU-145, in the test with EKVX and in the test with HCC 2998 was > 100 µM (inactive) each time. The GI50 with HCT-116, in the test on HL-60, in the test on M14, in the test on MDA-MB-435, in the test with MOLT-4 and with NCI-H226 was > 100 µM (inactive) throughout. Further, the GI50 in the test on OVCAR-8, in the test on RPMI-8226, in the test with SK-MEL-28, with SK-MEL-2, in the test on SK-MEL-5 and in the test with UACC-62 was > 100 µM (inactive) in each case.
On to `COC(=O)[C@]1(c2cc3ccccc3[nH]2)CC2CN(CC(=O)N(C)OC)C1CC2(OC)OC` (stereo partly drawn), for which the GI50 was 22.2 µM (inactive) in the test with 786-0; 47.1 µM (inactive) in the test on A549; 20.7 µM (inactive) with CAKI-1; 43.5 µM (inactive) in the test on DU-145; 56.6 µM (inactive) with EKVX; > 100 µM (inactive) in the test on HCC 2998. In addition, the GI50 in the test on HCT-116 was 26.9 µM (inactive); with HL-60, 19.4 µM (inactive); in the test on M14, 35.9 µM (inactive); in the test with MDA-MB-435, 27.5 µM (inactive); in the test with NCI-H226, 34.4 µM (inactive); with OVCAR-8 it was 39.3 µM (inactive). For the same compound, the GI50 in the test with RPMI-8226 was 14.7 µM (inactive); in the test with SK-MEL-28, > 100 µM (inactive); in the test with SK-MEL-2 it was 39 µM (inactive); with SK-MEL-5, 40.6 µM (inactive); in the test on UACC-62 it was 67.8 µM (inactive).
For `Cc1csc2nc(-c3cccc([N+](=O)[O-])c3)c(/C=N/N=C(N)N)n12`, the GI50 was 1.57 µM (inactive) with 786-0; 1.72 µM (inactive) in the test with A549; 2.73 µM (inactive) with CAKI-1; 2.19 µM (inactive) in the test on DU-145; 1.55 µM (inactive) with EKVX; < 0.01 µM (active) with HCC 2998. Moreover, the GI50 in the test with HCT-116 was 1.7 µM (inactive); in the test with HL-60, 1.25 µM (inactive); with M14, 1.71 µM (inactive); in the test on MDA-MB-435 it was 1.66 µM (inactive); with NCI-H226 it was 1.64 µM (inactive); in the test with OVCAR-8 it was 1.74 µM (inactive). Also, the GI50 with RPMI-8226 is 1.86 µM (inactive); in the test on SK-MEL-28 it was 1.71 µM (inactive); in the test on SK-MEL-2, 1.77 µM (inactive); in the test on SK-MEL-5, 1.55 µM (inactive); in the test on UACC-62 it was 1.46 µM (inactive).
As to `Oc1ccc(Cl)cc1-c1nc(S)nc(-c2ccccc2)c1Cl`, the GI50 in the test with 786-0 is 34.7 µM (inactive); with A549 it was > 100 µM (inactive); in the test with CAKI-1 it was 48.1 µM (inactive); in the test on DU-145 it was > 70.6 µM (inactive); with HCT-116 it was > 96.4 µM (inactive); in the test with HL-60, > 100 µM (inactive). In addition, the GI50 with M14, in the test with MDA-MB-435, with MOLT-4, in the test on NCI-H226, with OVCAR-8 and with RPMI-8226 was > 100 µM (inactive) each time. Further, the GI50 in the test with SK-MEL-28 is > 100 µM (inactive); in the test on SK-MEL-2, 69.8 µM (inactive); in the test on SK-MEL-5, > 61.7 µM (inactive); in the test with SR, > 100 µM (inactive); in the test with UACC-62, > 10 µM (inactive).
Turning to `COC(=O)c1ccc(NCC2=CC(=O)C=CC2=O)cc1O`, the GI50 in the test with 786-0 was 15.7 µM (inactive); with A549 it was 32.6 µM (inactive); with CAKI-1, 18.6 µM (inactive); in the test with DU-145, 15.2 µM (inactive); with EKVX, 17.7 µM (inactive); with HCT-116 it was 17.2 µM (inactive). For the same compound, the GI50 in the test with M14 was 20.9 µM (inactive); in the test with MDA-MB-435, 29.4 µM (inactive); with MOLT-4, 8.87 µM (inactive); with NCI-H226, 19.5 µM (inactive); in the test with OVCAR-8, 15.5 µM (inactive); with SK-MEL-28 it was 46 µM (inactive). The GI50 with SK-MEL-2 is 44.2 µM (inactive); in the test on SK-MEL-5 it was 24.4 µM (inactive); with SR, > 100 µM (inactive); in the test with UACC-62 it was 15.7 µM (inactive).
